From patent publication US9040545B2, “Heterocyclyl pyrazolopyrimidine analogues as selective JAK inhibitors” (Cellzome Limited, priority 2010, dated 2015)

Experiments:
JAK2 = target: T1, JAK2 (Homo sapiens, UniProt O60674); assay: Kinobeads assay, JAK2; format: binding; settings: mixed Molt4/Ramos lysate, read-out: Inhibition values (IC50) JAK2
T1 construct: endogenous in cells; host or cells: mixed Molt4/Ramos lysate (1:2)
In short: (§1)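 IC50 values come from dose-response curves of JAK2/JAK3 captured on immobilized aminopyrido-pyrimidine beads, quantified by antibody dot blot with infrared read-out. Compounds (1:3 series, 9 steps, from 5 mM DMSO stock) competed for 3 h in the cold with mixed Molt4/Ramos lysate (1:2, 10 mg/mL protein).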

JAK3 = target: T2, JAK3 (Homo sapiens, UniProt P52333); assay: Kinobeads assay, JAK3; format: binding; settings: mixed Molt4/Ramos lysate, read-out: Inhibition values (IC50) JAK3
T2 construct: endogenous in cells; host or cells: mixed Molt4/Ramos lysate (1:2)
T2 sequence (P52333 1-1124): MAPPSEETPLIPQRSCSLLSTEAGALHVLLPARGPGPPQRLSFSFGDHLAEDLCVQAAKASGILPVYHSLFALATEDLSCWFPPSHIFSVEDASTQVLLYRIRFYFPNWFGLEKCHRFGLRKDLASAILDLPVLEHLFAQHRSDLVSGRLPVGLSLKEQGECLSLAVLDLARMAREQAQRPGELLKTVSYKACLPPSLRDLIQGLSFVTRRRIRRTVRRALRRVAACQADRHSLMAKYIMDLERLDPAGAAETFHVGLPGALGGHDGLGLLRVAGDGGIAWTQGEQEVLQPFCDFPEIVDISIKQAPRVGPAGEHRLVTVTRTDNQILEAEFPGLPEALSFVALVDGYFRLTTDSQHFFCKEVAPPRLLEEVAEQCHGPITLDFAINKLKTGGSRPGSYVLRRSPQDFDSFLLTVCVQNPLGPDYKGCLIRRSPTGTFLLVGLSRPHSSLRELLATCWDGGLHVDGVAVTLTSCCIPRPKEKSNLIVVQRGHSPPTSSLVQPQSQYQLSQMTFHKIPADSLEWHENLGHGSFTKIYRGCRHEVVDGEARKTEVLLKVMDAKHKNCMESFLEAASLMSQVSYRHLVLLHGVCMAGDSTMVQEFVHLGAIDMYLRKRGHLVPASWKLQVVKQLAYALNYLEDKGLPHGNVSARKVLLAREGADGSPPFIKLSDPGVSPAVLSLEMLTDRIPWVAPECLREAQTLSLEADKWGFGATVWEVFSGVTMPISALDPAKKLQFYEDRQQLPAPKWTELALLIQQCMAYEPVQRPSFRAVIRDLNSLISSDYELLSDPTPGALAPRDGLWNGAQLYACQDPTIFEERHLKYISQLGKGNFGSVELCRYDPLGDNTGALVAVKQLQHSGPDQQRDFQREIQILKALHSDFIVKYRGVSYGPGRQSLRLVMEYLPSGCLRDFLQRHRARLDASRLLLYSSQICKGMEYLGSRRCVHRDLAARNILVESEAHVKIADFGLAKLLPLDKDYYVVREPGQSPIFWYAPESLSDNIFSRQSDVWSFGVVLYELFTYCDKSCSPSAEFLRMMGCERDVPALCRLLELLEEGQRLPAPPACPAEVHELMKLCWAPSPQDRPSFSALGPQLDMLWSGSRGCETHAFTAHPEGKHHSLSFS
In short: as §1

T1 sequence (O60674 whole entry): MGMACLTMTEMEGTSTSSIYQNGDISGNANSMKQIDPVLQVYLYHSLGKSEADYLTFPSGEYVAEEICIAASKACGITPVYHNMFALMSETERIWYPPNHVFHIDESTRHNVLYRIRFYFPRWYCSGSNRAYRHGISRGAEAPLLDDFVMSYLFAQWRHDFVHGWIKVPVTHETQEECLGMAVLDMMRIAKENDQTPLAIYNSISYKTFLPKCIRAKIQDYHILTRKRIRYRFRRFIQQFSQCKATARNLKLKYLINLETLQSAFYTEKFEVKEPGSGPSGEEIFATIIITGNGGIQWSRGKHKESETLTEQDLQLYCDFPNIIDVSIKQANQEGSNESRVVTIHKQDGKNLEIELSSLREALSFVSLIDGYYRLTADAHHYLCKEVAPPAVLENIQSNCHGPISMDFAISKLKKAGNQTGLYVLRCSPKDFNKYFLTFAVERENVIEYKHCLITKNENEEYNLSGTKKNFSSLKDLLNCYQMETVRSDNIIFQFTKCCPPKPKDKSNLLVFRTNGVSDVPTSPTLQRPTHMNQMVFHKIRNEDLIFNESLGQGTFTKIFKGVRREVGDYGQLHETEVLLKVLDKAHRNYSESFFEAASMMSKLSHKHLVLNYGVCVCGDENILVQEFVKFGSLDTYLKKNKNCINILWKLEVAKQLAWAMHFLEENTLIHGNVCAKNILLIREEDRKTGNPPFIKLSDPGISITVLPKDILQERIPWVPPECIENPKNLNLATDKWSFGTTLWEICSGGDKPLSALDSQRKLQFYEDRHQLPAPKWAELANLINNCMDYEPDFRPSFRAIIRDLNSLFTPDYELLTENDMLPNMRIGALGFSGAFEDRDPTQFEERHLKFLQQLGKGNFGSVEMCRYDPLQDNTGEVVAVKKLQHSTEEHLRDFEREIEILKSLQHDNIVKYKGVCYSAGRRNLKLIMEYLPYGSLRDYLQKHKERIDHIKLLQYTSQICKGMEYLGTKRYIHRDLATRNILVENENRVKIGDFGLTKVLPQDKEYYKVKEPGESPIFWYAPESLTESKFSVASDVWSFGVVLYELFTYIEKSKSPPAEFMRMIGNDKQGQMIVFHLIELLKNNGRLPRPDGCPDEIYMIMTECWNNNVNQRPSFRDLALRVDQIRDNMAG

Compound | IC50 (JAK2) [nM] | IC50 (JAK3) [nM]
Cn1cc(Nc2ncc3cnn(Cc4cccc(N5CCNCC5)c4F)c3n2)cn1 [Example 67, 1-(2-Fluoro-3-(piperazin-1-yl)benzyl)-N-(1-methyl-1H-pyrazol-4-yl)-1H-pyrazolo[3,4-d]pyrimidin-6-amine] | 1000 to 10000 | < 100
CNC(=O)Cn1cc(Nc2ncc3cnn(Cc4cc(F)cc(N5CCOCC5=O)c4)c3n2)cn1 [Example 68, 2-(4-((1-(3-Fluoro-5-(3-oxomorpholino)benzyl)-1H-pyrazolo[3,4-d]pyrimidin-6-yl)amino)-1H-pyrazol-1-yl)-N-methylacetamide] | 1000 to 10000 | < 100
Cn1cc(Nc2ncc3cnn(Cc4c(F)ccc(N5CCOCC5=O)c4F)c3n2)cn1 [Example 69, 4-(2,4-Difluoro-3-((6-((1-methyl-1H-pyrazol-4-yl)amino)-1H-pyrazolo[3,4-d]pyrimidin-1-yl)methyl)phenyl)morpholin-3-one] | 1000 to 10000 | < 100
CN(C)CCCn1cc(Nc2ncc3cnn(Cc4c(F)c(F)cc(N5CCOCC5=O)c4F)c3n2)cn1 [Example 70, 4-(3-((6-((1-(3-(Dimethylamino)propyl)-1H-pyrazol-4-yl)amino)-1H-pyrazolo[3,4-d]pyrimidin-1-yl)methyl)-2,4,5-trifluorophenyl)morpholin-3-one] | 1000 to 10000 | < 100
Cn1cc(Nc2ncc3cnn(Cc4cc(N5CCNCC5=O)cc(F)c4F)c3n2)cn1 [Example 71, 1-(3,4-Difluoro-5-((6-((1-methyl-1H-pyrazol-4-yl)amino)-1H-pyrazolo[3,4-d]pyrimidin-1-yl)methyl)phenyl)piperazin-2-one] | ≥ 10000 | < 100
O=C1CNCCN1c1cc(F)c(F)c(Cn2ncc3cnc(Nc4cnn(CCO)c4)nc32)c1 [Example 72, 1-(3,4-Difluoro-5-((6-((1-(2-hydroxyethyl)-1H-pyrazol-4-yl)amino)-1H-pyrazolo[3,4-d]pyrimidin-1-yl)methyl)phenyl)piperazin-2-one] | ≥ 10000 | < 100
Cn1cc(Nc2ncc3cnn(Cc4cc(F)cc(N5CCOCC5=O)c4F)c3n2)cn1 [Example 73, 4-(2,5-Difluoro-3-((6-((1-methyl-1H-pyrazol-4-yl)amino)-1H-pyrazolo[3,4-d]pyrimidin-1-yl)methyl)phenyl)morpholin-3-one] | 100 to 1000 | < 100
O=C1COCCN1c1cc(F)cc(Cn2ncc3cnc(Nc4cnn(CCO)c4)nc32)c1F [Example 74, 4-(2,5-Difluoro-3-((6-((1-(2-hydroxyethyl)-1H-pyrazol-4-yl)amino)-1H-pyrazolo[3,4-d]pyrimidin-1-yl)methyl)phenyl)morpholin-3-one] | 100 to 1000 | < 100
CN(C)CCCn1cc(Nc2ncc3cnn(Cc4c(F)ccc(N5CCOCC5=O)c4F)c3n2)cn1 [Example 75, 4-(3-((6-((1-(3-(Dimethylamino)propyl)-1H-pyrazol-4-yl)amino)-1H-pyrazolo[3,4-d]pyrimidin-1-yl)methyl)-2,4-difluorophenyl)morpholin-3-one] | 1000 to 10000 | < 100
Cn1cc(Nc2ncc3cnn(Cc4c(F)ccc(N5CCNCC5=O)c4F)c3n2)cn1 [Example 76, 1-(2,4-Difluoro-3-((6-((1-methyl-1H-pyrazol-4-yl)amino)-1H-pyrazolo[3,4-d]pyrimidin-1-yl)methyl)phenyl)piperazin-2-one] | 1000 to 10000 | < 100
COC1CCN(c2cccc(Cn3ncc4cnc(Nc5cnn(C)c5)nc43)c2)CC1 [Example 77, 1-(3-(4-Methoxypiperidin-1-yl)benzyl)-N-(1-methyl-1H-pyrazol-4-yl)-1H-pyrazolo[3,4-d]pyrimidin-6-amine] | ≥ 10000 | < 100
OCCn1cc(Nc2ncc3cnn(Cc4cc(N5CCNCC5)cc(F)c4F)c3n2)cn1 [Example 78, 2-(4-((1-(2,3-Difluoro-5-(piperazin-1-yl)benzyl)-1H-pyrazolo[3,4-d]pyrimidin-6-yl)amino)-1H-pyrazol-1-yl)ethanol] | 1000 to 10000 | < 100
Cn1cc(Nc2ncc3cnn(Cc4cc(F)cc(C(=O)N5CCOCC5)c4)c3n2)cn1 [Example 79, (3-Fluoro-5-((6-((1-methyl-1H-pyrazol-4-yl)amino)-1H-pyrazolo[3,4-d]pyrimidin-1-yl)methyl)phenyl)(morpholino)methanone] | 100 to 1000 | < 100
Cn1cc(Nc2ncc3cnn(Cc4cc(F)cc(C(=O)N5CCNCC5)c4)c3n2)cn1 [Example 80, (3-Fluoro-5-((6-((1-methyl-1H-pyrazol-4-yl)amino)-1H-pyrazolo[3,4-d]pyrimidin-1-yl)methyl)phenyl)(piperazin-1-yl)methanone] | 1000 to 10000 | < 100
Fc1cc(N2CCOCC2)c(F)c(Cn2ncc3cnc(Nc4cn[nH]c4)nc32)c1F [Example 81, N-(1H-Pyrazol-4-yl)-1-(2,3,6-trifluoro-5-morpholinobenzyl)-1H-pyrazolo[3,4-d]pyrimidin-6-amine] | 1000 to 10000 | < 100
OCCn1cc(Nc2ncc3cnn(Cc4c(F)ccc(N5CCOCC5)c4F)c3n2)cn1 [Example 82, 2-(4-((1-(2,6-Difluoro-3-morpholinobenzyl)-1H-pyrazolo[3,4-d]pyrimidin-6-yl)amino)-1H-pyrazol-1-yl)ethanol] | ≥ 10000 | < 100
OCCn1cc(Nc2ncc3cnn(Cc4cccc(N5CCNCC5)c4F)c3n2)cn1 [Example 83, 2-(4-((1-(2-Fluoro-3-(piperazin-1-yl)benzyl)-1H-pyrazolo[3,4-d]pyrimidin-6-yl)amino)-1H-pyrazol-1-yl)ethanol] | 1000 to 10000 | < 100
O=C1COCCN1c1cc(F)cc(Cn2ncc3cnc(Nc4cn[nH]c4)nc32)c1 [Example 84, 4-(3-((6-((1H-Pyrazol-4-yl)amino)-1H-pyrazolo[3,4-d]pyrimidin-1-yl)methyl)-5-fluorophenyl)morpholin-3-one] | 100 to 1000 | < 100
O=C(c1cccc(Cn2ncc3cnc(Nc4cnn(CCO)c4)nc32)c1F)N1CCOCC1 [Example 85, (2-Fluoro-3-((6-((1-(2-hydroxyethyl)-1H-pyrazol-4-yl)amino)-1H-pyrazolo[3,4-d]pyrimidin-1-yl)methyl)phenyl)(morpholino)methanone] | 1000 to 10000 | < 100
Cn1cc(Nc2ncc3cnn(Cc4cc(N5CCNCC5)cc(F)c4F)c3n2)cn1 [Example 86, 1-(2,3-Difluoro-5-(piperazin-1-yl)benzyl)-N-(1-methyl-1H-pyrazol-4-yl)-1H-pyrazolo[3,4-d]pyrimidin-6-amine] | 1000 to 10000 | < 100
Cn1cc(Nc2ncc3cnn(Cc4cccc(C(=O)N5CCOCC5)c4F)c3n2)cn1 [Example 87, (2-Fluoro-3-((6-((1-methyl-1H-pyrazol-4-yl)amino)-1H-pyrazolo[3,4-d]pyrimidin-1-yl)methyl)phenyl)(morpholino)methanone] | 1000 to 10000 | < 100
Cn1cc(Nc2ncc3cnn(Cc4cccc(N5CCOCC5O)c4)c3n2)cn1 (centres unmarked) [Example 88, 4-(3-((6-((1-Methyl-1H-pyrazol-4-yl)amino)-1H-pyrazolo[3,4-d]pyrimidin-1-yl)methyl)phenyl)morpholin-3-ol] | ≥ 10000 | 100 to 1000
